target: Bruton's Tyrosine Kinase (BTK), inactivated state (Homo sapiens (Human), UniProt Q06187); assay: Bruton's Tyrosine Kinase (BTK) Inhibition TR-FRET (Time Resolved FRET) competition assay; type: binding; conditions: competition with Kinase Tracer 178 for BTK-Eu; plates incubated 18-24 h at 14° C.
Protocol: Bruton's Tyrosine Kinase (BTK) Inhibition TR-FRET (Time Resolved FRET) Assay
This BTK competition assay measures compound potency (IC50) for the inactivated state of Bruton's Tyrosine Kinase using FRET (Förster/Fluoresence Resonance Energy Transfer) technology. The BTK-Eu complex was incubated on ice one hour prior to use at a starting concentration of 50 nM BTK-Bioease™: 10 nM Eu-streptavidin (Perkin-Elmer Catalog #AD0062). The assay buffer consisted of 20 mM HEPES (pH 7.15), 0.1 mM DTT, 10 mM MgCl2, 0.5 mg/ml BSA with 3% Kinase Stabilizer (Fremont Biosolutions, Catalog #STB-K02). After 1 h, the reaction mixture from above was diluted 10 fold in assay buffer to make 5 nM BTK: 1 nM Eu-Streptavidin complex (donor fluorophore). 18 μl of a mixture of 0.11 nM BTK-Eu and 0.11 nM Kinase Tracer 178 (Invitrogen, Catalog #PV5593,) with BTK-Eu alone as no negative control, was then dispensed into 384-well flat bottom plates (Greiner, 784076). Compounds to be tested in assay were prepared as 10× concentrations and serial dilution in half-log increments was performed in DMSO so as to generate 10 point curves. To initiate the FRET reaction, compounds prepared as 10× stock in DMSO was added to the plates and the plates were incubated 18-24 h at 14° C.
After the incubation the plates were read on a BMG Pherastar Fluorescent plate reader (or equivalent) and used to measure the emission energy from the europium donor fluorophore (620 nm emission) and the FRET (665 nm emission). The negative control well values were averaged to obtain the mean minimum. The positive “no inhibitor” control wells were averaged to obtain the mean maximum. Percent of maximal FRET was calculated using following equation: % max FRET=100×[(FSRcmpd−FSRmean min)/(FSRmean max−FSRmean min)]
where FSR=FRET Signal ratio. % Max FRET curves were plotted in Activity Base (Excel) and the IC50 (%), hill slope, z′ and % CV were determined The mean IC50 and standard deviation will be derived from duplicate curves (singlet inhibition curves from two independent dilutions) using Microsoft Excel.
Representative compound data for this assay are listed below in Table II.

Sequence of Bruton's Tyrosine Kinase (BTK), inactivated state (Q06187 whole entry): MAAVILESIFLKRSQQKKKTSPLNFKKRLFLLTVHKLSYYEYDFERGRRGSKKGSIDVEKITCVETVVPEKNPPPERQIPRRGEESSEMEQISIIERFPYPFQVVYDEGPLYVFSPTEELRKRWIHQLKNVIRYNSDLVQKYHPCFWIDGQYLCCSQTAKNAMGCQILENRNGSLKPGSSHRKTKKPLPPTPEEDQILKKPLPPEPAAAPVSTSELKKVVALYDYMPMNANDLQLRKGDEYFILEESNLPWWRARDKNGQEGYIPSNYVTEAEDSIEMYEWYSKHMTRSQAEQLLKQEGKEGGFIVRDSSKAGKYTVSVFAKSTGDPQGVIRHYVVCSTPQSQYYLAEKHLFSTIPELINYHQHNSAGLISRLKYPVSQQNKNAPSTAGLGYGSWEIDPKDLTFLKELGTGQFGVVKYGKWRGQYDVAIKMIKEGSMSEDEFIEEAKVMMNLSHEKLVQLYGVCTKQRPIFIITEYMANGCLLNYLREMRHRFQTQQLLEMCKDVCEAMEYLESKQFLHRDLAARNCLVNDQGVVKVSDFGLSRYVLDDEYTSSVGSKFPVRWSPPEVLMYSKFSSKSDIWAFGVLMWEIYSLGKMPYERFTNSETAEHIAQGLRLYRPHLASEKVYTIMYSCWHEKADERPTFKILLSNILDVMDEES

IC50 [nM]	Compound
114	CCC(=O)C(=O)Nc1cccc(-c2c[nH]c3ncc(NC(=O)OCc4cccc(C#N)c4)cc23)c1 [Compound 19, (3-cyanophenyl)methyl N-[3-[3-(2-oxobutanoylamino)phenyl]-1H-pyrrolo[2,3-b]pyridin-5-yl]carbamate]
137	CC(=O)C(=O)Nc1cccc(-c2c[nH]c3ncc(NC(=O)OCc4cccc(C#N)c4)cc23)c1 [Compound 20, (3-cyanophenyl)methyl N-[3-[3-(2-oxopropanoylamino)phenyl]-1H-pyrrolo[2,3-b]pyridin-5-yl]carbamate]
287	N#CC1(C(=O)Nc2cccc(-c3c[nH]c4ncc(NC(=O)OCc5ccccc5)cc34)c2)CC1 [Compound 21, benzyl N-[3-[3-[(1-cyanocyclopropanecarbonyl)amino]phenyl]-1H-pyrrolo[2,3-b]pyridin-5-yl]carbamate]
620	CC(C)OC(=O)Nc1cnc2[nH]cc(-c3cccc(NC(=O)CC#N)c3)c2c1 [Compound 22, propan-2-yl N-[3-[3-[(2-cyanoacetyl)amino]phenyl]-1H-pyrrolo[2,3-b]pyridin-5-yl]carbamate]
331	CN(C)C/C=C/C(=O)Nc1ccccc1-c1c[nH]c2ncc(NC(=O)OCc3ccccc3)cc12 [Compound 23, benzyl N-[3-[2-[[(E)-4-(dimethylamino)but-2-enoyl]amino]phenyl]-1H-pyrrolo[2,3-b]pyridin-5-yl]carbamate]
165	CC(=O)C(=O)N1CC=C(c2c[nH]c3ncc(NC(=O)OCc4ccccc4Cl)cc23)CC1 [Compound 24, (2-chlorophenyl)methyl N-[3-[1-(2-oxopropanoyl)-3,6-dihydro-2H-pyridin-4-yl]-1H-pyrrolo[2,3-b]pyridin-5-yl]carbamate]
404	CCC(=O)C(=O)N1CC=C(c2c[nH]c3ncc(NC(=O)OCc4ccccc4Cl)cc23)CC1 [Compound 25, (2-chlorophenyl)methyl N-[3-[1-(2-oxobutanoyl)-3,6-dihydro-2H-pyridin-4-yl]-1H-pyrrolo[2,3-b]pyridin-5-yl]carbamate]
384	CCC(=O)C(=O)N1CC=C(c2c[nH]c3ncc(NC(=O)OCc4cccc(F)c4)cc23)CC1 [Compound 26, (3-fluorophenyl)methyl N-[3-[1-(2-oxobutanoyl)-3,6-dihydro-2H-pyridin-4-yl]-1H-pyrrolo[2,3-b]pyridin-5-yl]carbamate]
291	CCC(=O)C(=O)N1CC=C(c2c[nH]c3ncc(NC(=O)OCc4ccccc4)cc23)CC1 [Compound 27, benzyl N-[3-[1-(2-oxobutanoyl)-3,6-dihydro-2H-pyridin-4-yl]-1H-pyrrolo[2,3-b]pyridin-5-yl]carbamate]
210	CC(=O)C(=O)N1CC=C(c2c[nH]c3ncc(NC(=O)OCc4cccc(F)c4)cc23)CC1 [Compound 28, (3-fluorophenyl)methyl N-[3-[1-(2-oxopropanoyl)-3,6-dihydro-2H-pyridin-4-yl]-1H-pyrrolo[2,3-b]pyridin-5-yl]carbamate]
700	CC(=O)C(=O)N1CC=C(c2c[nH]c3ncc(NC(=O)OCc4cccc(C#N)c4)cc23)CC1 [Compound 29, (3-cyanophenyl)methyl N-[3-[1-(2-oxopropanoyl)-3,6-dihydro-2H-pyridin-4-yl]-1H-pyrrolo[2,3-b]pyridin-5-yl]carbamate]
1.2	C=CC(=O)N1CC=C(c2c[nH]c3ncc(NC(=O)OCc4ccccc4)cc23)CC1 [Compound 30, benzyl N-[3-(1-prop-2-enoyl-3,6-dihydro-2H-pyridin-4-yl)-1H-pyrrolo[2,3-b]pyridin-5-yl]carbamate]

Further lines, the compound ahead of its results:

Compound	IC50 [nM]
CN(C)C/C=C/C(=O)Nc1cccc(-c2c[nH]c3ncc(NC(=O)OCc4ccccc4)cc23)c1 [Compound 1, benzyl N-[3-[3-[[(E)-4-(dimethylamino)but-2-enoyl]amino]phenyl]-1H-pyrrolo[2,3-b]pyridin-5-yl]carbamate]	7
C=CC(=O)Nc1cccc(-c2c[nH]c3ncc(NC(=O)OCc4ccccc4)cc23)c1 [Compound 2, benzyl N-[3-[3-(prop-2-enoylamino)phenyl]-1H-pyrrolo[2,3-b]pyridin-5-yl]carbamate]	0.3
C=CC(=O)Nc1cccc(-c2c[nH]c3ncc(NC(=O)OC(C)C)cc23)c1 [Compound 3, propan-2-yl N-[3-[3-(prop-2-enoylamino)phenyl]-1H-pyrrolo[2,3-b]pyridin-5-yl]carbamate]	0.3
CCC(=O)C(=O)Nc1cccc(-c2c[nH]c3ncc(NC(=O)OCc4ccccc4)cc23)c1 [Compound 4, benzyl N-[3-[3-(2-oxobutanoylamino)phenyl]-1H-pyrrolo[2,3-b]pyridin-5-yl]carbamate]	8
CC(C)OC(=O)Nc1cnc2[nH]cc(-c3cccc(NC(=O)/C=C/CN(C)C)c3)c2c1 [Compound 5, propan-2-yl N-[3-[3-[[(E)-4-(dimethylamino)but-2-enoyl]amino]phenyl]-1H-pyrrolo[2,3-b]pyridin-5-yl]carbamate]	13
C=CC(=O)N(C)c1cccc(-c2c[nH]c3ncc(NC(=O)OC(C)C)cc23)c1 [Compound 6, propan-2-yl N-[3-[3-[methyl(prop-2-enoyl)amino]phenyl]-1H-pyrrolo[2,3-b]pyridin-5-yl]carbamate]	24
COCCC(=O)N(C)c1cccc(-c2c[nH]c3ncc(NC(=O)OC(C)C)cc23)c1 [Compound 7, propan-2-yl N-[3-[3-[3-methoxypropanoyl(methyl)amino]phenyl]-1H-pyrrolo[2,3-b]pyridin-5-yl]carbamate]	880
CCC(=O)C(=O)Nc1cccc(-c2c[nH]c3ncc(NC(=O)OC(C)C)cc23)c1 [Compound 8, propan-2-yl N-[3-[3-(2-oxobutanoylamino)phenyl]-1H-pyrrolo[2,3-b]pyridin-5-yl]carbamate]	49
C=C(C(=O)Nc1cccc(-c2c[nH]c3ncc(NC(=O)OCc4ccccc4)cc23)c1)C(F)(F)F [Compound 9, benzyl N-[3-[3-[2-(trifluoromethyl)prop-2-enoylamino]phenyl]-1H-pyrrolo[2,3-b]pyridin-5-yl]carbamate]	72
CC(C)(C)C(=O)C(=O)Nc1cccc(-c2c[nH]c3ncc(NC(=O)OCc4ccccc4)cc23)c1 [Compound 10, benzyl N-[3-[3-[(3,3-dimethyl-2-oxobutanoyl)amino]phenyl]-1H-pyrrolo[2,3-b]pyridin-5-yl]carbamate]	100
CCC(C)C(=O)C(=O)Nc1cccc(-c2c[nH]c3ncc(NC(=O)OCc4ccccc4)cc23)c1 (stereo not drawn) [Compound 11, benzyl N-[3-[3-[(3-methyl-2-oxopentanoyl)amino]phenyl]-1H-pyrrolo[2,3-b]pyridin-5-yl]carbamate]	206
CC(C)CC(=O)C(=O)Nc1cccc(-c2c[nH]c3ncc(NC(=O)OCc4ccccc4)cc23)c1 [Compound 12, benzyl N-[3-[3-[(4-methyl-2-oxopentanoyl)amino]phenyl]-1H-pyrrolo[2,3-b]pyridin-5-yl]carbamate]	285
O=C(Nc1cnc2[nH]cc(-c3cccc(NC(=O)C(=O)c4ccccc4)c3)c2c1)OCc1ccccc1 [Compound 13, benzyl N-[3-[3-[(2-oxo-2-phenylacetyl)amino]phenyl]-1H-pyrrolo[2,3-b]pyridin-5-yl]carbamate]	323
CC(=O)C(=O)Nc1cccc(-c2c[nH]c3ncc(NC(=O)OCc4ccccc4Cl)cc23)c1 [Compound 14, (2-chlorophenyl)methyl N-[3-[3-(2-oxopropanoylamino)phenyl]-1H-pyrrolo[2,3-b]pyridin-5-yl]carbamate]	30
CCC(=O)C(=O)Nc1cccc(-c2c[nH]c3ncc(NC(=O)OCc4ccccc4Cl)cc23)c1 [Compound 15, (2-chlorophenyl)methyl N-[3-[3-(2-oxobutanoylamino)phenyl]-1H-pyrrolo[2,3-b]pyridin-5-yl]carbamate]	60
CCC(=O)C(=O)Nc1cccc(-c2c[nH]c3ncc(NC(=O)OCc4cccc(F)c4)cc23)c1 [Compound 16, (3-fluorophenyl)methyl N-[3-[3-(2-oxobutanoylamino)phenyl]-1H-pyrrolo[2,3-b]pyridin-5-yl]carbamate]	42
CC(=O)C(=O)Nc1cccc(-c2c[nH]c3ncc(NC(=O)OCc4cccc(F)c4)cc23)c1 [Compound 17, (3-fluorophenyl)methyl N-[3-[3-(2-oxopropanoylamino)phenyl]-1H-pyrrolo[2,3-b]pyridin-5-yl]carbamate]	43.7
C=C(C(=O)Nc1cccc(-c2c[nH]c3ncc(NC(=O)OCc4cccc(F)c4)cc23)c1)C(F)(F)F [Compound 18, (3-fluorophenyl)methyl N-[3-[3-[2-(trifluoromethyl)prop-2-enoylamino]phenyl]-1H-pyrrolo[2,3-b]pyridin-5-yl]carbamate]	123

Source: patent US9617260B2, “Inhibitors of bruton's tyrosine kinase” (Hoffmann-La Roche Inc., priority 2013, dated 2017)
